According to patent publication US20100129790A1, “Method for Determining Phospholipidosis” (TAKEDA PHARMACEUTICAL LIMITED, priority 2005, published 2010):
Where two headings read alike, the source gives them in different places.

Legend:
blood [1] = test: GeneChip analysis of blood (Rat Expression Array 230A), 3-day administration; type: in vivo; settings: rat blood 24 hr after 3 consecutive days of oral administration, pooled, 3 rats per group; dose per compound in table
Description: (§1) At 24 hr after completion of the oral administration for 3 consecutive days in Example 1, the blood was collected from the compound administration group and the control (non-administration) group (3 rats per group), which was pooled and subjected to GeneChip analysis.
(§2) After collection using PAXgene Blood RNA Tube (PreAnalytiX), the blood was stood for 2 hr or more, and cryopreserved at −80° C. Total RNA was extracted using a PAXgene Blood RNA Kit (PreAnalytiX). A sample for GeneChip analysis was prepared and analyzed according to the protocol provided by Affymetrix Inc. cDNA synthesis reaction was carried out using a SuperScript Choice system (Invitrogen), then biotin-labeled cRNA synthesis reaction was carried out using Enzo BioArray HighYield RNA Transcript Labeling Kit (Affymetrix), after which cRNA was fragmented and a labeled sample was prepared. The labeled sample was hybridized to Rat Expression Array 230A (RAE230A, Affymetrix), the array was stained, washed and scanned by GeneChip system (Affymetrix), and the following three image data were obtained from one sheet of array.
1. data of staining by a method omitting fluorescence amplification reaction by antibody 2. data of staining by the method described in a manual for once performing fluorescence amplification reaction by antibody 3. data of staining by a method for twice performing fluorescence amplification reaction by antibody
(§3) From the image data, measurement value (Signal), numerical data such as Signal Log Ratio and the like and determination data such as Detection, Change and the like were obtained using MicroarraySuite5.0 (parameter: Default value). Fold Change was calculated from Signal Log Ratio of the image data 2 using the conversion equation of Fold Change=2^Signal Log Ratio.
(§4) (*In GeneChip analysis using RAE230A, 11 sites per one measurement target sequence are measured, and the measurement results at 11 sites are combined to give one numerical value and determination data. RAE230A contains 15924 combinations of 11 site measurement sets, and each measurement set is referred to as a probe set.)
(§5) A probe set wherein two or more of the above-mentioned three image data satisfy the following three conditions was taken as a variation probe set.
(§6) 1. A probe set judged as Increase or Decrease by MicroarraySuite5.0 2. A probe set whose higher measurement value (Signal) was judged as Presence by MicroarraySuite5.0 3.

Crj:CD(SD)IGS rats [2] = settings: rat, in vivo
Description: After completion of the administration, in all animals, livers, kidneys, spleens, lungs and mesenteric lymph nodes were sampled, these sampled tissues were examined for histopathological changes by conventional methods of optical microscopy and electron microscopy. In addition, a blood smear sample (Giemsa stain sample) was prepared, and the vacuolated lymphocyte ratio of the peripheral blood was measured with observation under a microscope.

blood [3] = test: GeneChip analysis of blood (Rat Expression Array 230A), 7-day administration; type: in vivo; settings: rat blood 24 hr after 7 consecutive days of oral administration, pooled, 4 rats per group; dose per compound in table
Description: as §2, §3, §4, §5, §6
as §1, with “7” for “3”, “3,” for “1,”, “(4” for “(3”, “analysis in the same manner as in Example 2.” for “analysis.”

Crj:CD(SD)IGS rats [4] = settings: rat, in vivo; remark: listed apart in the source

Row | Number of expression variation probe sets, Decreased expression (blood [1]) | Number of expression variation probe sets, Increased expression (blood [1]) | Histopathological findings (PLsis) Kidney (Crj:CD(SD)IGS rats [2]) | Histopathological findings (PLsis) Liver (Crj:CD(SD)IGS rats [2]) | Histopathological findings (PLsis) Lung (Crj:CD(SD)IGS rats [2]) | Histopathological findings (PLsis) Lymph node (Crj:CD(SD)IGS rats [2]) | Histopathological findings (PLsis) Spleen (Crj:CD(SD)IGS rats [2]) | Number of expression variation probe sets, Decreased expression (blood [3]) | Number of expression variation probe sets, Increased expression (blood [3]) | Histopathological findings (PLsis) Liver (Crj:CD(SD)IGS rats [4]) | Histopathological findings (PLsis) Lung (Crj:CD(SD)IGS rats [4]) | Histopathological findings (PLsis) Lymph node (Crj:CD(SD)IGS rats [4]) | Histopathological findings (PLsis) Others (Crj:CD(SD)IGS rats [4]) | Histopathological findings (PLsis) Spleen (Crj:CD(SD)IGS rats [4]) | SMILES
1 | 282 | 613 | − | − | ++ | ++ | − | 457 | 515 | − | + | + | − | + | CCCCc1oc2ccccc2c1C(=O)c1cc(I)c(OCCN(CC)CC)c(I)c1 [Amiodarone, amiodarone]
2 | 318 | 382 | − | + | − | − | + | 179 | 310 | − | − | + | − | + | CCN(CC)CCCC(C)Nc1ccnc2cc(Cl)ccc12 (stereo not drawn) [Chloroquine, chloroquine]
3 | 391 | 372 |  |  |  |  |  |  |  | + | + | + | brain | − | CNCCC(Oc1ccc(C(F)(F)F)cc1)c1ccccc1 (stereo not drawn) [Fluoxetine, fluoxetine]
4 |  |  | − | ++ | + | − | − | 320 | 123 |  |  |  |  |  | CN(C)CCCN1c2ccccc2CCc2ccccc21 [Imipramine, imipramine]
5 | 179 | 310 | − | − | + | + | − | 83 | 49 | − | + | + | − | + | C1CCC(C(CC2CCCCN2)C2CCCCC2)CC1 (stereo not drawn) [Perhexiline, perhexiline]
6 | 392 | 240 | + | ++ | + | − | + | 103 | 258 | + | + | + | − | − | CCN(CC)CCCC(C)Nc1c2ccc(Cl)cc2nc2ccc(OC)cc12 (stereo not drawn) [Quinacrine, quinacrine]
7 | 94 | 258 | − | − | + | ++ | − | 368 | 546 | + | + | + | − | − | CC/C(=C(\c1ccccc1)c1ccc(OCCN(C)C)cc1)c1ccccc1 [Tamoxifen, tamoxifen]
